Source: PMC11732138, “Gold complex compounds that inhibit drug-resistant Staphylococcus aureus by targeting thioredoxin reductase” (Frontiers in Antibiotics, 2023)
≈ marks a conversion by molar mass, not a printed value. Entries after “also recorded” stand apart in the source; their conditions may differ. Where two headings read alike, the source gives them in different places.

How the values were obtained:
[1] = system: S. aureus MW2; assay: Time to kill assay; type: cell-based, Staphylococcus aureus; conditions: 4 × MIC, 4 h; bactericidal = 3-log10-CFU/mL reduction
Procedure: S. aureus MW2, a methicillin-resistant S. aureus (MRSA) isolate, was used to determine the bacteriostatic/bactericidal properties of test compounds, as previously described ([Rajamuthiah et al., 2015]). Assays were carried out as 2 biological replicates with n=3 for each in 24 well plates (BD Biosciences, Franklin Lakes, NJ, USA). Briefly, S. aureus MW2 cells were streaked on TSB agar from a frozen glycerol stock, and after overnight incubation, a single colony was inoculated on 2 mL of TSB and incubated at 37°C with agitation. The overnight culture of S. aureus MW2 was centrifuged at 4000 g for 5 min and then washed twice with PBS and collected through centrifuged at 4000 g for 5 min. The PBS was discarded and cells were suspended in TSB and aliquoted into a 24-well plate at a density of 10^8 cells/mL as a 1 mL volume. Test compounds were added such that the final concentration was 4 × MIC, and the cultures were incubated at 37°C with agitation. At designated time intervals, 5 μL aliquots from each test condition were serially diluted in TSB and plated onto TSA (BD Biosciences, Franklin Lakes, NJ, USA). CFUs were enumerated after overnight incubation at 35°C, and data were plotted using GraphPad Prism 9.0 (San Diego, CA, USA) to report the means and standard deviation of growth as measured by CFU/mL.

[2] = system: HKC cells; assay: Immortalized cell line toxicity (WST-1), HKC; type: cell-based, human; conditions: HKC kidney cell line, 24 h
Procedure: (§1) A hepatic cell line (HepG2), lung carcinoma cell line (A549), and kidney cell line (HKC) were used to test the cytotoxicity of investigational compounds. Cells were grown in DMEM (ThermoFisher Scientific, Waltham, MA, USA) supplemented with 10% fetal bovine serum (FBS) (ThermoFisher Scientific, Waltham, MA, USA) and 1% penicillin/streptomycin (ThermoFisher Scientific, Waltham, MA, USA) and maintained at 37°C in 5% CO2. 2.5x10^4 cells in 100 μL of DMEM with 10% FBS were added to wells of 96-well plates 24 h prior to the experiments. Compounds were serially diluted in […], and 100 μL antibiotic-free DMEM was added to the monolayer and incubated at 37°C in 5% CO2 for 24 h. At 2 h before the end of the incubation period, 10 μL of 2-(4-iodophenyl)-3-(4-nitrophenyl)-5-(2, 4-disulfophenyl)-2H-tetrazolium (WST-1) solution (Roche, Mannheim, Germany) was added to each well. WST-1 reduction was monitored at 450 nm using a Vmax microplate reader. Assays were performed in triplicate, and the percentage survival was calculated by comparing the compound-treated wells to the DMSO vehicle control wells.

[3] = system: HepG2 cells; assay: Immortalized cell line toxicity (WST-1), HepG2; type: cell-based, human; conditions: HepG2 liver cell line, 24 h
Procedure: as §1

[4] = system: A549 cells; assay: Immortalized cell line toxicity (WST-1), A549; type: cell-based, human; conditions: A549 lung carcinoma cell line, 24 h
Procedure: as §1

[5] = Immortalized cell line toxicity (WST-1), the three cell lines together; type: cell-based; conditions: human, hkc, hepg2, a549 cells, HKC, HepG2, A549; read-out: toxicity to cell lines as multiple of the MIC
Procedure: as §1

[6] = system: human primary hepatocytes; assay: Human primary hepatocytes toxicity; type: cell-based; conditions: 24 h, WST1
Procedure: Human primary hepatocytes toxicity. Cryopreserved human primary hepatocytes were purchased from the Cell Resource Core at Massachusetts General Hospital (Boston, MA, USA). Collagen sandwiched configuration was used to culture the thawed cells in 24-well plates. The 24-well plates were coated with rat tail collagen type I (Cell Recourse Core, MGH) and incubated for an hour before 4 x 10^5 live cells were plated and incubated at 37°C with 5% CO2 for 1 h to allow cells to attach to the collagen gel. After incubation, the medium was removed along with dead cells, and the remaining cells received 0.5 mL of hepatocyte culture medium containing Dulbecco’s modified Eagle’s medium (DMEM) media supplemented with 10% FBS, 0.5 U/mL insulin, 14 ng/mL glucagon, 20 ng/mL EGF, 7.5 µg/mL hydrocortisone and 200 U/mL penicillin-streptomycin. The cell cultures were incubated in a humidified, 5% CO2 incubator at 37°C. After 24 h, a top layer of collagen gel was poured over the hepatocytes attached to collagen on the bottom of the plate, making a sandwich model. After 1 h, investigational compounds at the designated concentrations were added and incubated for 24 h. Post incubation, hepatocyte WST1 (Roche, Basel, Switzerland) was added and incubated for 4 h. Cell staining was measured by recording the absorbance at 420 nm, measured using a Vmax microplate reader (Molecular Devices, San Jose, CA, USA.), and data were plotted using GraphPad Prism. Cells were tested in triplicate.

[7] = system: renal proximal tubule epithelial cells; assay: Renal proximal tubule epithelial cell toxicity; type: cell-based, human
[8] = Compound solubility in PBS; type: physicochemical; conditions: aqueous buffer
Procedure: Compound solubility in PBS. Compound solubility was measured in PBS. Briefly, serial dilutions of test compounds were prepared in DMSO at 100x the final concentration. Test compound solutions were diluted 100-fold into PBS in a 96-well plate and mixed. After 2 h, the presence of precipitate was detected by measuring absorbance at 540 nm.

[9] = Compound solubility in DMSO; type: physicochemical; conditions: organic solvent or mixture, turbidity at 540 nm, read-out: concentration at which reduced solubility began in DMSO
Procedure: To test compound solubility, stock solutions were made in triplicate at 50 mg/mL in DMSO. Two-fold serial dilutions of the test compounds were prepared at 50 μL volume in a 96-well assay plate and were kept in the incubator for 1 h. After incubation, the absorbance was measured at 540 nm using a Vmax microplate reader (Molecular Devices, Sunnyvale, CA, USA.) to detect turbidity.

[10] = target: hERG channel (Homo sapiens, UniProt Q12809); assay: hERG measurement (QPatch HTX patch clamp)
Chain of hERG channel (Q12809 whole entry): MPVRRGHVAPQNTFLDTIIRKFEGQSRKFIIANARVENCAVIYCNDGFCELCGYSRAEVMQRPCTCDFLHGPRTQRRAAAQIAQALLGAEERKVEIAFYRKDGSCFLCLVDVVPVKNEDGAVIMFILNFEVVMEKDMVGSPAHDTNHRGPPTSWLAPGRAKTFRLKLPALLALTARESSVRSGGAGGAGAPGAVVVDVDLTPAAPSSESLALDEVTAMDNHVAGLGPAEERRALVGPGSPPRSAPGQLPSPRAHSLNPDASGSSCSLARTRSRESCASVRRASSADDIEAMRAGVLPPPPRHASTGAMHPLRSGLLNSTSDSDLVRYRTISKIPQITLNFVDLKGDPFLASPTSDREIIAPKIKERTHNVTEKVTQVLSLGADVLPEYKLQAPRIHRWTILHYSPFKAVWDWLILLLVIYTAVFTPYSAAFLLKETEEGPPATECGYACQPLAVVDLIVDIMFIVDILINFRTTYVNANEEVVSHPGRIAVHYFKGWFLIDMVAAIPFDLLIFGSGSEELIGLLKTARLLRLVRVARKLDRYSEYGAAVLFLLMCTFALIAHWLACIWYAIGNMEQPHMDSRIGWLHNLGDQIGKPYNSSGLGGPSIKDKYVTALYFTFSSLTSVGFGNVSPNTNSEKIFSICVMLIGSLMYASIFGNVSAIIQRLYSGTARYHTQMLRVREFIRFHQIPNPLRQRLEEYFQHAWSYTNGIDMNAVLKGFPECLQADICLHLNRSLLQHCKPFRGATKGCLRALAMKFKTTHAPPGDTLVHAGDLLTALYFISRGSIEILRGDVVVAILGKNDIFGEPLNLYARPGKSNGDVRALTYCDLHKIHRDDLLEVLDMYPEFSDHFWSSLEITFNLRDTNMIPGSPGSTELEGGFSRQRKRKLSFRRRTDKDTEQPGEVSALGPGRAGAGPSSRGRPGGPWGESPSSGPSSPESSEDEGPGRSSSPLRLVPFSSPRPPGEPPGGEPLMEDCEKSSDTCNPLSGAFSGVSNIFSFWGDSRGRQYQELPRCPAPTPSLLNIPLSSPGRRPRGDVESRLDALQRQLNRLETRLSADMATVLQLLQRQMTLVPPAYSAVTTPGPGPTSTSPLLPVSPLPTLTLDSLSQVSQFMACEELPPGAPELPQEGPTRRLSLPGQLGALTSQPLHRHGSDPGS
Text: QPatch HTX system (Sophion Biosciences A/S, Ballerup, Denmark) was used to examine hERG signaling (Cyprotex, Watertown, MA, USA). The system was primed with appropriate extracellular (NaCl, KCl, CaCl2, MgCl2, D-glucose, HEPES, pH 7.4) and intracellular (KCl, MgCl2, EGTA, MgATP, HEPES, pH 7.2) solutions before conducting the study in a 48 well plate (QPlate, Sophion Biosciences A/S, Ballerup, Denmark). All cell suspensions, buffers, and test compound solutions were kept at room temperature during the experiment. HEK293 cells stably transfected with hERG cDNA were washed and positioned into each well (recording chamber) of the QPlate. The QPatch system follows the general principles of conventional whole-cell patch-clamping: a high resistance seal is formed between the patch electrode, and an individual cell, the membrane across the electrode tip is then ruptured, and the whole-cell patch-clamp configuration is established. The standard voltage profile was as follows: step from -80 mV to –50 mV for 200 ms, +20 mV for 4.8 s, step to -50 mV for 5 s, then stepped to the holding potential of -80 mV. The step from -80 mV to the test command (+20 mV) results in an outward current (i.e., current flows out of the cell), and the step from the test command (+20 mV) to -50 mV results in the tail current (the tail current represents deactivation of the current overtime). Compound dilutions were prepared by diluting a DMSO solution (default 10 mM), followed by dilution into an extracellular buffer such that the final concentrations tested were 0.1, 1, and 10 μM (final DMSO concentration 0.1%). Perfusion solutions contained 0.05% Pluronic F-68 and were stored at room temperature for the duration of the experiment each day. The voltage protocol was run and recorded continuously during the experiment. Cells were treated with a vehicle for 3 min (i.e., 0.1% DMSO) followed by three increasing test substance concentrations (0.1, 1, and 10 μM). The test compounds were applied in triplicate at each concentration and tested in at least 2 cells (biological replicates). […]

[11] = target: S. aureus TrxR (Staphylococcus aureus, UniProt P66011); assay: TrxR (TrxB) enzymatic assay, DTNB to TNB conversion
Chain of S. aureus TrxR (P66011 whole entry): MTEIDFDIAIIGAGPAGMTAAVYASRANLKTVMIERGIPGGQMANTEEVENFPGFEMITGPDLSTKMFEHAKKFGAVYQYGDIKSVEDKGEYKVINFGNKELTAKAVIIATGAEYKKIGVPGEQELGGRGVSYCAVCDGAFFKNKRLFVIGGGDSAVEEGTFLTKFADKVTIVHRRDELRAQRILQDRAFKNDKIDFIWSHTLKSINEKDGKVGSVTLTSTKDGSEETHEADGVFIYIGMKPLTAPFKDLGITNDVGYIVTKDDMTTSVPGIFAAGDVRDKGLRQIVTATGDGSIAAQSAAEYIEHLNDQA
Procedure: TrxR specific inhibitory activity was evaluated using 40 μL of S. aureus TrxR enzyme (0.5 μg/μL) per 200 mL of the reaction mixture for 15 minutes, comparing auranofin to other sulfur-containing compounds (all tested at 10 μg/mL), including known anti-S. aureus compounds.
For the screening assay, diluted TrxR assay buffer (Cayman Chemical, Ann Arbor, MI) (100 μL) was mixed with the investigational compounds (20 μL) in a 96 well-plate format and combined with Sa-TrxB (40 μL; 0.5 μg/mL), DTNB (20 μL) and NADPH (20 μL). The reaction entailed combining NADPH and Sa-TrxB with DTNB, which was converted to TNB, producing a yellow color.

[12] = system: S. aureus MW2; assay: Broth microdilution MIC, S. aureus MW2; type: cell-based, Staphylococcus aureus; conditions: Staphylococcus aureus, MRSA, 18 h
Procedure: (§2) In vitro antibiotic susceptibilities were determined using the broth microdilution assay established by the Clinical and Laboratory Standards Institute ([Clinical and Laboratory Standards Institute, 2012]). Broth microdilution assays were carried out with 2 biological replicates, each in triplicate, Mueller–Hinton broth (MHB; BD Biosciences, Franklin Lakes, NJ, USA) with a total assay volume of 100 μL in 96-well plates (BD Biosciences, Franklin Lakes, NJ, USA). Two-fold serial dilutions of compounds were prepared at a range of 0.01– 64 μg/mL in 50 μL of MHB. The initial bacterial inoculum was adjusted to OD600 0.06, 50 μL was, added to the test compounds, and then incubated at 35°C for 18 h. Post incubation, OD600 was measured using a Vmax microplate reader (Molecular Devices, San Jose, CA), and the lowest concentration of test compound that suppressed bacterial growth was reported as the MIC. Broth culture from the MIC assay (10 μL) was plated on Mueller–Hinton agar (BD Biosciences, Franklin Lakes, NJ, USA), and colony-forming units (CFUs) were enumerated after overnight incubation at 37°C.

[13] = system: E. faecium ATCC E007; assay: Broth microdilution MIC, E. faecium; type: cell-based, Enterococcus faecium; conditions: Enterococcus faecium, ATCCE007
Procedure: as §2

[14] = system: H. pylori 49503; assay: Broth microdilution MIC, H. pylori; type: cell-based, Helicobacter pylori; conditions: Helicobacter pylori, 49503
Procedure: as §2

[15] = system: A. baumannii 17978; assay: Broth microdilution MIC, A. baumannii; type: cell-based, Acinetobacter baumannii; conditions: Acinetobacter baumannii, 17978
Procedure: as §2

[16] = system: P. aeruginosa PA14; assay: Broth microdilution MIC, P. aeruginosa; type: cell-based, Pseudomonas aeruginosa; conditions: Pseudomonas aeruginosa, PA14
Procedure: as §2

[17] = system: K. pneumoniae ATCC 77326; assay: Broth microdilution MIC, K. pneumoniae; type: cell-based, Klebsiella pneumonia; conditions: Klebsiella pneumoniae, ATCC77326
Procedure: as §2

[18] = system: Enterobacter (EAE 2625); assay: Broth microdilution MIC, Enterobacter; type: cell-based, Enterobacter spp.; conditions: Enterobacter
Procedure: as §2

[19] = system: clinical isolates of S. aureus; assay: MIC against clinical isolates of S. aureus; type: cell-based; conditions: Staphylococcus aureus
Procedure: Broth microdilution assays were carried out with 2 biological replicates, each in triplicate, Mueller–Hinton broth (MHB; BD Biosciences, Franklin Lakes, NJ, USA) with a total assay volume of 100 μL in 96-well plates (BD Biosciences, Franklin Lakes, NJ, USA). […] The initial bacterial inoculum was adjusted to OD600 0.06, 50 μL was, added to the test compounds, and then incubated at 35°C for 18 h. Post incubation, OD600 was measured using a Vmax microplate reader (Molecular Devices, San Jose, CA), and the lowest concentration of test compound that suppressed bacterial growth was reported as the MIC.
Isolates were tested as 2 biological replicates.

[20] = system: S. aureus MW2 biofilm formation; assay: Biofilm formation inhibition; type: cell-based, Staphylococcus aureus; conditions: 24 h, Alamar Blue
Procedure: (§3) Diluted bacterial cells were added to 100 μL of test compounds (serially diluted 16 to 0 μg/mL) and incubated for 24 h to assess the biofilm formation inhibition. For the disruption of matured biofilm, diluted cells in 100 μL were added to the 96-well plate and incubated for 24 h with no agitation. […] Biofilm assays were completed in triplicate.

[21] = system: mature S. aureus biofilm; assay: Disruption of mature biofilm; type: cell-based, Staphylococcus aureus; conditions: preformed 24 h biofilm, Alamar Blue
Procedure: as §3

In the case of `CC(C)(C)c1ccc(S(=O)[O-])cc1.[Au+].c1ccc(P(c2ccccc2)c2ccccc2)cc1` [AU5], the “bactericidal versus bacteriostatic nature (time-to-kill kinetics)” value [1] is reported as “bactericidal; also recorded: bacteriocidal”, the LD50 [2] is reported as “approximately 4 μg/mL” and the LD50 [3] is reported as “approximately 4 μg/mL”. The LD50 [4] was “approximately 4 μg/mL”, the selectivity ratio at 24 h [5] was 16 and the LD50 [6] was about 6 µg/mL. The LD50 ([7]; renal proximal tubule epithelial cells) was 2 µg/mL, the solubility at 2 h ([8]; PBS, 2 Hour, highest concentration with no detectable precipitate, read-out: Solubility Limit) was 3.13 µM and the solubility at 2 h ([8]; pbs, read-out: Solubility in PBS converted to mass concentration) was 2.03 µg/mL. The solubility at 1 h [9] was 6.5 µg/mL, the IC50 [10] was 3160 nM and the IC50 [11] was 1830 nM.

Work on `CN[C@H](CC(C)C)C(=O)N[C@H]1C(=O)N[C@@H](CC(N)=O)C(=O)N[C@H]2C(=O)N[C@H]3C(=O)N[C@H](C(=O)N[C@H](C(=O)O)c4cc(O)cc(O)c4-c4cc3ccc4O)[C@H](O)c3ccc(c(Cl)c3)Oc3cc2cc(c3O[C@@H]2O[C@H](CO)[C@@H](O)[C@H](O)[C@H]2O[C@H]2C[C@](C)(N)[C@H](O)[C@H](C)O2)Oc2ccc(cc2Cl)[C@H]1O` [Vancomycin] yielded an MIC [12] of 1 µg/mL (≈ 0.69 µM), an MIC [13] of 1 µg/mL (≈ 0.69 µM) and an MIC [14] of over 64 µg/mL. For the same molecule, the MIC [15] was over 64 µg/mL, the MIC [16] was over 64 µg/mL and the MIC [17] was over 64 µg/mL. The MIC [18] was over 64 µg/mL, the MIC ([19]; isolate BFSA12) was 1 µg/mL (≈ 0.69 µM) and the MIC ([19]; isolate BFSA13) was 1 µg/mL (≈ 0.69 µM). It also gave an MIC ([19]; isolate BFSA15) of 1 µg/mL (≈ 0.69 µM), an MIC ([19]; isolate BFSA16) of 1 µg/mL (≈ 0.69 µM) and an MIC ([19]; isolate BFSA17) of 1 µg/mL (≈ 0.69 µM). The MIC ([19]; isolate BFSA18) was 2 µg/mL (≈ 1.38 µM), the MIC ([19]; isolate BFSA19) was 1 µg/mL (≈ 0.69 µM) and the MIC ([19]; isolate BFSA20) was 1 µg/mL (≈ 0.69 µM). The MIC ([19]; isolate BFSA21) was 2 µg/mL (≈ 1.38 µM), the MIC ([19]; isolate BFSA22) was 2 µg/mL (≈ 1.38 µM) and the MIC ([19]; isolate BFSA24) was 1 µg/mL (≈ 0.69 µM). The MIC ([19]; isolate BFSA26) was 2 µg/mL (≈ 1.38 µM), the MIC ([19]; isolate BFSA29) was 1 µg/mL (≈ 0.69 µM) and the MIC ([19]; isolate BFSA30) was 1 µg/mL (≈ 0.69 µM). It also gave an MIC ([19]; isolate BFSA31) of 2 µg/mL (≈ 1.38 µM), an MIC ([19]; isolate BFSA32) of 2 µg/mL (≈ 1.38 µM) and an MIC ([19]; isolate BFSA33) of 2 µg/mL (≈ 1.38 µM). It also gave an MIC ([19]; isolate BFSA34) of 1 µg/mL (≈ 0.69 µM), an MIC ([19]; isolate BFSA35) of 1 µg/mL (≈ 0.69 µM) and an MIC ([19]; isolate BFSA36) of 2 µg/mL (≈ 1.38 µM). It also gave an MIC ([19]; isolate BFSA37) of 1 µg/mL (≈ 0.69 µM), an MIC ([19]; isolate BFSA38) of 1 µg/mL (≈ 0.69 µM) and an MIC ([19]; isolate BFSA39) of 1 µg/mL (≈ 0.69 µM). It also gave an MIC ([19]; isolate BFSA148) of 1 µg/mL (≈ 0.69 µM), an MIC ([19]; isolate BFSA149) of 2 µg/mL (≈ 1.38 µM) and an MIC ([19]; isolate BFSA150) of 1 µg/mL (≈ 0.69 µM). The MIC ([19]; isolate BFSA151) was 1 µg/mL (≈ 0.69 µM), the MIC ([19]; isolate BFSA152) was 2 µg/mL (≈ 1.38 µM) and the MIC ([19]; isolate BFSA153) was 2 µg/mL (≈ 1.38 µM). For the same molecule, the MIC ([19]; isolate BFSA155) was 1 µg/mL (≈ 0.69 µM), the “concentration that inhibited biofilm formation (P<0.01)” value [20] was 1 µg/mL and the “concentration that significantly reduced mature biofilm” value [21] was 2 µg/mL. For the same molecule, the “impact on renal proximal tubule epithelial cells (in words)” value ([7]; at the tested concentrations) was “did not impact”.
